Converted amounts (≈) assume the structure as drawn.
Legend:
Format in all cases: functional
Enterococcus faecium = assay: Antimicrobial activity against Enterococcus faecium UC12712
Moraxella catarrhalis = assay: Antimicrobial activity against Moraxella catarrhalis
Haemophilus influenzae = assay: Antimicrobial activity against Haemophilus influenzae
Streptococcus pneumoniae = assay: Antimicrobial activity against Streptococcus pneumoniae
Staphylococcus aureus = assay: Antimicrobial activity against Staphylococcus aureus

| Compound | MIC (Enterococcus faecium) | MIC (Moraxella catarrhalis) | MIC (Haemophilus influenzae) | MIC (Streptococcus pneumoniae) | MIC (Staphylococcus aureus) |
| --- | --- | --- | --- | --- | --- |
| CC(=O)NC[C@H]1CN(c2ccc(C3CCS(=O)(=O)CC3)c(F)c2)C(=O)O1 | 2 µg/mL (≈ 5.2 µM) | 2 µg/mL (≈ 5.2 µM) | 4 µg/mL (≈ 10.4 µM) | 0.5 µg/mL (≈ 1.3 µM) | 2 µg/mL (≈ 5.2 µM) |
| CC(=O)NC[C@H]1CN(c2ccc(C3C=CS(=O)(=O)CC3)c(F)c2)C(=O)O1 (stereo partly drawn) | 2 µg/mL (≈ 5.23 µM) | 2 µg/mL (≈ 5.23 µM) | 8 µg/mL (≈ 20.9 µM) | 1 µg/mL (≈ 2.61 µM) | 4 µg/mL (≈ 10.5 µM) |
| O=C(NC[C@H]1CN(c2ccc(C3C=CS(=O)(=O)CC3)c(F)c2)C(=O)O1)C(Cl)Cl (stereo partly drawn) | 2 µg/mL (≈ 4.43 µM) | 2 µg/mL (≈ 4.43 µM) | 4 µg/mL (≈ 8.86 µM) | 0.5 µg/mL (≈ 1.11 µM) | 2 µg/mL (≈ 4.43 µM) |
| O=C1O[C@@H](C/N=C(/S)C(F)F)CN1c1ccc(C2C=CS(=O)(=O)CC2)cc1 (stereo partly drawn) | 2 µg/mL (≈ 4.8 µM) | 4 µg/mL (≈ 9.6 µM) | 8 µg/mL (≈ 19.2 µM) | 0.5 µg/mL (≈ 1.2 µM) | 2 µg/mL (≈ 4.8 µM) |
| O=C1O[C@@H](C/N=C(/S)C(F)F)CN1c1ccc(N2C=CS(=O)(=O)CC2)cc1 | 1 µg/mL (≈ 2.4 µM) | 4 µg/mL (≈ 9.58 µM) | 4 µg/mL (≈ 9.58 µM) | 0.5 µg/mL (≈ 1.2 µM) | 2 µg/mL (≈ 4.79 µM) |
| O=C(NC[C@H]1CN(c2ccc(C3C=CS(=O)(=O)CC3)cc2)C(=O)O1)C(F)F (stereo partly drawn) | 4 µg/mL (≈ 9.99 µM) | 4 µg/mL (≈ 9.99 µM) | 8 µg/mL (≈ 20 µM) | 1 µg/mL (≈ 2.5 µM) | 4 µg/mL (≈ 9.99 µM) |
| O=C1O[C@@H](C/N=C(/S)C(F)F)CN1c1ccc(N2C=CS(=O)(=O)CC2)c(F)c1 | 1 µg/mL (≈ 2.3 µM) | 4 µg/mL (≈ 9.19 µM) | 4 µg/mL (≈ 9.19 µM) | 0.5 µg/mL (≈ 1.15 µM) | 1 µg/mL (≈ 2.3 µM) |
| O=C1O[C@@H](C/N=C(/S)C(F)F)CN1c1cc(F)c(N2C=CS(=O)(=O)CC2)c(F)c1 | 0.25 µg/mL (≈ 0.551 µM) | 2 µg/mL (≈ 4.41 µM) | 4 µg/mL (≈ 8.82 µM) | 0.25 µg/mL (≈ 0.551 µM) | 1 µg/mL (≈ 2.21 µM) |
| O=C(NC[C@H]1CN(c2cc(F)c(N3C=CS(=O)(=O)CC3)c(F)c2)C(=O)O1)C(F)F | 1 µg/mL (≈ 2.29 µM) | 4 µg/mL (≈ 9.15 µM) | 4 µg/mL (≈ 9.15 µM) | 0.5 µg/mL (≈ 1.14 µM) | 4 µg/mL (≈ 9.15 µM) |
| CC(=O)NC[C@H]1CN(c2ccc(C3C=CS(=O)(=O)CC3)cc2)C(=O)O1 (stereo partly drawn) | 4 µg/mL (≈ 11 µM) | 8 µg/mL (≈ 22 µM) | 8 µg/mL (≈ 22 µM) | 1 µg/mL (≈ 2.74 µM) | 4 µg/mL (≈ 11 µM) |
| CC(=O)NC[C@H]1CN(c2cc(F)c(C3C=CS(=O)(=O)CC3)c(F)c2)C(=O)O1 (stereo partly drawn) | 2 µg/mL (≈ 4.99 µM) | 8 µg/mL (≈ 20 µM) | 8 µg/mL (≈ 20 µM) | 1 µg/mL (≈ 2.5 µM) | 4 µg/mL (≈ 9.99 µM) |
| O=C(NC[C@H]1CN(c2ccc(C3C=CS(=O)(=O)CC3)c(F)c2)C(=O)O1)C(F)F (stereo partly drawn) | 2 µg/mL (≈ 4.78 µM) | 4 µg/mL (≈ 9.56 µM) | 4 µg/mL (≈ 9.56 µM) | 1 µg/mL (≈ 2.39 µM) | 2 µg/mL (≈ 4.78 µM) |
| O=C1O[C@@H](C/N=C(/S)C(F)F)CN1c1cc(F)c(C2C=CS(=O)(=O)CC2)c(F)c1 (stereo partly drawn) | 2 µg/mL (≈ 4.42 µM) | 4 µg/mL (≈ 8.84 µM) | 16 µg/mL (≈ 35.4 µM) | 0.5 µg/mL (≈ 1.11 µM) | 1 µg/mL (≈ 2.21 µM) |
| O=C(NC[C@H]1CN(c2ccc(N3C=CS(=O)(=O)CC3)cc2)C(=O)O1)C(Cl)Cl | 2 µg/mL (≈ 4.61 µM) | 2 µg/mL (≈ 4.61 µM) | 2 µg/mL (≈ 4.61 µM) | 0.5 µg/mL (≈ 1.15 µM) | 4 µg/mL (≈ 9.21 µM) |
| CC(=O)NC[C@H]1CN(c2ccc(N3C=CS(=O)(=O)CC3)c(F)c2)C(=O)O1 | 2 µg/mL (≈ 5.22 µM) | 2 µg/mL (≈ 5.22 µM) | 4 µg/mL (≈ 10.4 µM) | 0.5 µg/mL (≈ 1.3 µM) | 4 µg/mL (≈ 10.4 µM) |
| O=C(NC[C@H]1CN(c2cc(F)c(C3C=CS(=O)(=O)CC3)c(F)c2)C(=O)O1)C(F)F (stereo partly drawn) | 2 µg/mL (≈ 4.58 µM) | 8 µg/mL (≈ 18.3 µM) | 8 µg/mL (≈ 18.3 µM) | 1 µg/mL (≈ 2.29 µM) | 2 µg/mL (≈ 4.58 µM) |
| O=C(NC[C@H]1CN(c2ccc(N3C=CS(=O)(=O)CC3)c(F)c2)C(=O)O1)C(F)F | 2 µg/mL (≈ 4.77 µM) | 4 µg/mL (≈ 9.54 µM) | 4 µg/mL (≈ 9.54 µM) | 0.5 µg/mL (≈ 1.19 µM) | 4 µg/mL (≈ 9.54 µM) |
| CC(=O)NC[C@H]1CN(c2cc(F)c(N3C=CS(=O)(=O)CC3)c(F)c2)C(=O)O1 | 1 µg/mL (≈ 2.49 µM) | 4 µg/mL (≈ 9.97 µM) | 8 µg/mL (≈ 19.9 µM) | 0.5 µg/mL (≈ 1.25 µM) | 2 µg/mL (≈ 4.98 µM) |
| CC(=O)NC[C@H]1CN(c2cc(F)c(N3CCS(=O)(=O)CC3)c(F)c2)C(=O)O1 | 2 µg/mL (≈ 4.96 µM) | 4 µg/mL (≈ 9.92 µM) | 4 µg/mL (≈ 9.92 µM) | 1 µg/mL (≈ 2.48 µM) | 2 µg/mL (≈ 4.96 µM) |
| O=C(NC[C@H]1CN(c2cc(F)c(C3C=CS(=O)(=O)CC3)c(F)c2)C(=O)O1)C(Cl)Cl (stereo partly drawn) | 2 µg/mL (≈ 4.26 µM) | 4 µg/mL (≈ 8.52 µM) | 8 µg/mL (≈ 17 µM) | 0.5 µg/mL (≈ 1.07 µM) | 2 µg/mL (≈ 4.26 µM) |
| O=C(NC[C@H]1CN(c2ccc(N3C=CS(=O)(=O)CC3)cc2)C(=O)O1)C(F)F | 2 µg/mL (≈ 4.98 µM) | 4 µg/mL (≈ 9.97 µM) | 8 µg/mL (≈ 19.9 µM) | 1 µg/mL (≈ 2.49 µM) | 4 µg/mL (≈ 9.97 µM) |
| O=C(NC[C@H]1CN(c2ccc(C3C=CS(=O)(=O)CC3)cc2)C(=O)O1)C(Cl)Cl (stereo partly drawn) | 2 µg/mL (≈ 4.62 µM) | 4 µg/mL (≈ 9.23 µM) | 4 µg/mL (≈ 9.23 µM) | 0.5 µg/mL (≈ 1.15 µM) | 2 µg/mL (≈ 4.62 µM) |
| O=C(NC[C@H]1CN(c2cc(F)c(N3C=CS(=O)(=O)CC3)c(F)c2)C(=O)O1)C(Cl)Cl | 1 µg/mL (≈ 2.13 µM) | 4 µg/mL (≈ 8.51 µM) | 4 µg/mL (≈ 8.51 µM) | 0.5 µg/mL (≈ 1.06 µM) | 4 µg/mL (≈ 8.51 µM) |
| O=C1O[C@@H](C/N=C(/S)C(F)F)CN1c1ccc(C2C=CS(=O)(=O)CC2)c(F)c1 (stereo partly drawn) | 1 µg/mL (≈ 2.3 µM) | 2 µg/mL (≈ 4.6 µM) | 8 µg/mL (≈ 18.4 µM) | 0.5 µg/mL (≈ 1.15 µM) | 2 µg/mL (≈ 4.6 µM) |
| O=C(NC[C@H]1CN(c2ccc(N3C=CS(=O)(=O)CC3)c(F)c2)C(=O)O1)C(Cl)Cl | 1 µg/mL (≈ 2.21 µM) | 2 µg/mL (≈ 4.42 µM) | 2 µg/mL (≈ 4.42 µM) | 0.5 µg/mL (≈ 1.11 µM) | 2 µg/mL (≈ 4.42 µM) |
| CC(=O)NC[C@H]1CN(c2ccc(N3CCOCC3)c(F)c2)C(=O)O1 [LINEZOLID] | 4 µg/mL (≈ 11.9 µM) | 8 µg/mL (≈ 23.7 µM) | 16 µg/mL (≈ 47.4 µM) |  |  |

Source: ChEMBL document CHEMBL1138099, “Synthesis and structure-activity studies of antibacterial oxazolidinones containing dihydrothiopyran or dihydrothiazine C-rings” (2006)
